Test results published in ChEMBL document CHEMBL5385841, “Recent advances in gout drugs” (Eur J Med Chem, 2023).

Biological target: Xanthine dehydrogenase/oxidase (Homo sapiens, UniProt P47989)
Experiment: Inhibition of XO (unknown origin)
Settings: not given

Sequence of Xanthine dehydrogenase/oxidase (P47989 whole entry): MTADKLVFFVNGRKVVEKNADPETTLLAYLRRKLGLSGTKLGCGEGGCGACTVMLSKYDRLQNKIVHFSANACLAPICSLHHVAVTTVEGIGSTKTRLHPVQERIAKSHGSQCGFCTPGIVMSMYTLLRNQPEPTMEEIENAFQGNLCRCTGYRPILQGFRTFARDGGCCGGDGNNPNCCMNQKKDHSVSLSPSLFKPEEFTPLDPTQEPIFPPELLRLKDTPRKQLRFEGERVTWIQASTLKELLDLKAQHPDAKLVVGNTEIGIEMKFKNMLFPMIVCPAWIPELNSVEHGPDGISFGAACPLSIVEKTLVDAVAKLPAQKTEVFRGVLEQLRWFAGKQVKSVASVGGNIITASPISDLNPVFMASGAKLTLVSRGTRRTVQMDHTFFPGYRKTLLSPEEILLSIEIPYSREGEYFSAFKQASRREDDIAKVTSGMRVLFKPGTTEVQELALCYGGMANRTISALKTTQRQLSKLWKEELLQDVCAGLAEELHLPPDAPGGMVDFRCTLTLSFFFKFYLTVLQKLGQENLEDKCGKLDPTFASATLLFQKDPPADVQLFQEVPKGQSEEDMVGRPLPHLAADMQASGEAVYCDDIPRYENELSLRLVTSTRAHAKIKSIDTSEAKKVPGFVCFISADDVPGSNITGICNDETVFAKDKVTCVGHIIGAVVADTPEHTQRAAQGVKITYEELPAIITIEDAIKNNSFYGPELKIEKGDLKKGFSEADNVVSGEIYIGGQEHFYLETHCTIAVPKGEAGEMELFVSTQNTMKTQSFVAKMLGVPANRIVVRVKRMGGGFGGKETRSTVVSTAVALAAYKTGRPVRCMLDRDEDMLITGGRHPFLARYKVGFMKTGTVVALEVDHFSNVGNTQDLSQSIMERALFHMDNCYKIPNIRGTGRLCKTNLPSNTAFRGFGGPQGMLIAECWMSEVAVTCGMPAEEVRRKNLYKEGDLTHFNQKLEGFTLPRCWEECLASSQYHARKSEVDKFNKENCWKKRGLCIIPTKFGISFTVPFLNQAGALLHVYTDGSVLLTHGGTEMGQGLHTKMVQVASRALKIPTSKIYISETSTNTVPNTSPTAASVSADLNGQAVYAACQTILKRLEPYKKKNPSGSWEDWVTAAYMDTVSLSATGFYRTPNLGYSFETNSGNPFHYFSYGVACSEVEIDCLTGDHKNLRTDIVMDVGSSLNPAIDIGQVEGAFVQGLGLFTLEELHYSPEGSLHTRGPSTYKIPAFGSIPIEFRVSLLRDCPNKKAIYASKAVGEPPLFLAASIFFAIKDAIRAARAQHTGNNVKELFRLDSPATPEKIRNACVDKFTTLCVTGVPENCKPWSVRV

| Compound | IC50 [µM] |
| --- | --- |
| CC(=O)N1N=C(c2ccco2)CC1c1ccncc1 (centres undefined) | 5.3 |
| N#Cc1ccc(COc2cc(O)cc3oc4cc(O)c(O)cc4c(=O)c23)cc1 | 21.7 |
| O=c1cc(-c2ccc(F)cc2)oc2c1ccc1ccccc12 | 0.62 |
| N#CC1=C(N)Oc2c(c(=O)oc3ccccc23)C1c1cccs1 (centres undefined) | 0.59 |
| Cc1nc(-c2ccc(OCC(C)(C)C)c(C#N)c2)n(O)c1C(=O)O | 6 |
| Cc1nc(-c2ccc(OCC(C)C)c(C#N)c2)sc1C(=O)O [FEBUXOSTAT] | 25 |

Biological target: T1, Broad substrate specificity ATP-binding cassette transporter ABCG2 (Homo sapiens, UniProt Q9UNQ0)
T1 sequence (Q9UNQ0 whole entry): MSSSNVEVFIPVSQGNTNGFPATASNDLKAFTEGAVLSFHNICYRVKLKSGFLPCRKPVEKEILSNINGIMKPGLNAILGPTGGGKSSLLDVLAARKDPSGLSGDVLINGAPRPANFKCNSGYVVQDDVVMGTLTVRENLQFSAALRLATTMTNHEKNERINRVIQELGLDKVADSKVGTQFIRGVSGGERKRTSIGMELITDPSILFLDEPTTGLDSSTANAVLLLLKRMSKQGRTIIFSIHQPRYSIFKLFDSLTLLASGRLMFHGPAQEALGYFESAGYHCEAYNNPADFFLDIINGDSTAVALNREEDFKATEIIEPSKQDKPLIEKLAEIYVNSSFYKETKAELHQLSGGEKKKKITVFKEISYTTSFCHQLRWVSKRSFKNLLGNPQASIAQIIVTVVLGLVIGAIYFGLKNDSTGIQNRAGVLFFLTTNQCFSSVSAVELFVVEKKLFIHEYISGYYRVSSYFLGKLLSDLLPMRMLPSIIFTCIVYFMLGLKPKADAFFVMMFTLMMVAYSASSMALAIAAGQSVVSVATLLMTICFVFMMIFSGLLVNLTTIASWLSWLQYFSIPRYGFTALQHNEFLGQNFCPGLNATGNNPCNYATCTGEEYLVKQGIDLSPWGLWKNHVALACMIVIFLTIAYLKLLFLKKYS
Experiment: Inhibition of ABCG2 (unknown origin)
Settings: not given

| Compound | IC50 [µM] |
| --- | --- |
| O=C(c1cc(Cl)c(O)c(Cl)c1)N1CS(=O)(=O)c2ccccc21 [DOTINURAD] | 0.0372 |

Test system: not listed separately
Experiment: Oral bioavailability in rat relative to urinary excretion
Type: ADME, organism-based
Settings: urine

| Compound | bioavailability [%] |
| --- | --- |
| O=C(O)[C@H]1O[C@@H](Oc2c(Cl)cc(C(=O)N3CS(=O)(=O)c4ccccc43)cc2Cl)[C@H](O)[C@@H](O)[C@@H]1O | 44.3 |
| O=C(c1cc(Cl)c(OS(=O)(=O)O)c(Cl)c1)N1CS(=O)(=O)c2ccccc21 | 20 |
